Reference: patent publication US6433021B1, “Indane compounds and their pharmaceutical use” (Venantius Limited, priority 1999, dated 2002)

Experiments:
[1] = system: arachidonic acid-induced ear oedema; experiment: Mouse ear oedema model (arachidonic acid-induced acute inflammation); assay type: in vivo, Laca mice; conditions: 300 μg per ear topical in acetone, 30 min before arachidonic acid, 1 hour after arachidonic acid
Description: Mouse Ear Oedema Model The mouse ear oedema model was performed using Laca mice (25-35 g), of either sex. The animals were sedated with fentanyl/fluanisone (Hypnorn, Janssen). One ear was treated by the topical application of one of a range of test compounds or dexamethasone (all at 300 μg per ear in acetone). After 30 minutes, oedema was induced by the topical application of arachidonic acid (10 μl at 0.4 g/ml in acetone). The width of each ear was measured, both before and 60 minutes after the induction of oedema, using a micrometer screw gauge. Ear oedema was calculated by comparing the ear width before and after induction of oedema and expressed as percentage normal. Values are expressed as the percentage increase in ear thickness 1 hour after administration of archidonic acid and solvent controls (n=6 except Compound IV, n=4). Acute Inflammation—Mouse Ear

mast cells = experiment: Histamine release assay (mast cell stabilisation, compound 48/80-induced histamine release); assay type: cell-based, Female Wistar rats; conditions: rat peritoneal mast cells, 2×10^−5 M test compound, stimulated with Compound 48/80, n=5, read-out: % inhibition of histamine Release (±S.E.M.)
Description: The compounds were assessed for their ability to stabilise mast cell membranes in vitro. Mast cells treated with the compounds and untreated mast cells were stimulated to release histamine. A reduction in histamine release by the treated cells compared to the untreated cells indicates stabilisation of the membranes.
The buffered salt solution (BSS) was prepared in advance (NaCl 137 mM; KCl 2.7 mM; MgCl2 1.0 mM; CaCl2 0.5 mM; NaH2PO4 0.4 mM; Glucose 5.6 mM; HEPES 10 mM). This was dispensed into test tubes and heated to 37° C. each test tube contained 4.5 ml BSS. The solvent blank was supplemented with 0.5% (v/v) dimethyl sulphoxide (DMSO) or 0.5% (v/v) distilled water (dH2O). […]
To 2 ml of supernatent from each tube was added 0.4 ml of 1 M NaOH and 0.1 ml oPT (1% (w/v) in methanol). […] The presence of the fluorescent product of the reaction was measured using a Shimadzu RF-1501 spectrofluorophotometer set at λex=360 nm, λem=450 nm.
Each drug was tested on at least five animals (n=5). The results were expressed as a percentage of maximum inhibition of compound 48/80 induced-histamine release in the solvent blank sample. […] The basal histamine release in untreated cells was noted, expressed as a percentage of the total histamine content of the cells in suspension.

[2] = second set, solvent control 79.6
[3] = first set, solvent control 69.0

Row | Structure (SMILES) | Mean % (percentage increase in ear thickness) [1, 2] [%] | inhibition at 20 µM (mast cells) [%] | Mean % (percentage increase in ear thickness) [1, 3] [%]
1 | O=C1c2ccccc2CC1(CC(O)c1ccccc1)C1=Cc2ccccc2C1 (stereo not shown) [Compound IV, 1-phenyl-2-((2′-iidenyl)-indan-2-one)ethan-1-ol] | 13.1 |  | 
2 | OC(CC1(C2=Cc3ccccc3C2)Cc2ccccc2C1O)c1ccccc1 (stereo not shown) [Compound II, 1-phenyl-2-((2′-iindenyl)-indan-2-ol)ethan-1-ol] | 17.7 | 53.5 ± 2.53 | 
3 | O=C(CC1(C2=Cc3ccccc3C2)Cc2ccccc2C1=O)c1ccccc1 (stereo not shown) [Compound I, 1-phenyl-2-((2′-iidenyl)-indan-2-onyl)ethan-1-one] |  |  | 49.3
4 | O=C(CC1(C2=Cc3ccccc3C2)Cc2ccccc2C1O)c1ccccc1 (stereo not shown) [Compound III, 1-phenyl-2-((2′-iidenyl)-indan-2-ol)ethan-1-one] | 37.3 |  | 
5 | C[C@@H]1C[C@H]2[C@@H]3CCC4=CC(=O)C=C[C@]4(C)[C@@]3(F)[C@@H](O)C[C@]2(C)[C@@]1(O)C(=O)CO [Dexamethasone, reference compound] | 54.0 |  | 41.6
